For assay [1], the system named is STZ-Diabetic Rats. In words: Renal parameters in STZ-diabetic rats treated with LR-9 or LR-74 (Example 10). Format: in vivo, rat. As to conditions: for Kidney/Body wt. Ratio / Plasma Creatinine / Urinary Albumin: 50 mg/L in drinking water, 32 weeks; for decrease of elevated plasma creatinine concentrations: diabetic rats. How it is done: Diabetes was induced in male Sprague-Dawley rats by a single i.p. injection of STZ (65 mg/kg in citrate buffer, pH 4.5) after an overnight fast. Non-diabetic animals were injected with citrate buffer only. One week after STZ injection, only animals with >20 mmol/L plasma glucose were classified as diabetic and included in the study. Diabetic rats were divided randomly into the following treatment groups: diabetic untreated (D); and two diabetic treatment groups, receiving either LR-9 (D+LR-9) or LR-74 (D+LR-74) at 50 mg/L in drinking water. Three non-diabetic groups were studied concurrently: one untreated non-diabetic group (ND), and two non-diabetic groups treated with either LR-9 (ND+LR-9) or LR-74 (ND+LR-74) at 50 mg/L in drinking water.
Both plasma glucose and body weight were checked before administration of the drug, and no differences were detected among the three diabetic treatment groups or among the three non-diabetic groups. All animals were housed individually and were given free access to food and water. Glycemic control and body weights were monitored periodically. To limit hyperglycemia and ensure that animals maintained body weight, diabetic animals received 3 IU of ultralente insulin two to three times per week. The study was carried out over 32 weeks. Progression of renal dysfunction was assessed by measuring urinary albumin and plasma creatinine concentrations according to known methods. Figarola et al., Diabetologia 46:1140-115, 2003.

Assay [2] deals with STZ-Diabetic Rats. Briefly: Renal function parameters in STZ-diabetic rats (Example 3). Format: in vivo, rat. As to conditions: for Plasma Creatine / Urinary Albumin / Urinary Albumin/Creatine Ratio: mean ± SD; for decrease of elevated plasma creatinine concentrations: diabetic rats. How it is done: Male Sprague-Dawley rats (about 175 to 200 g) were adapted for one week prior to treatment, then rendered diabetic by intra-peritoneal injection of STZ (65 mg/kg in citrate buffer, pH 4.5) after an overnight fast. Control (non-diabetic) animals were injected with the buffer only. Diabetes was confirmed by measuring the plasma glucose concentrations 7 days after Streptozotocin (STZ)-injection. Only animals with a plasma glucose concentration greater than 20 mmol were classified as diabetic and used in the study. These diabetic rats were divided randomly into an untreated diabetic control group and a diabetic treatment group. The treatment group received an LR compound at 50 mg/l in their drinking water throughout the duration of the study (32 weeks for LR-90; 30 weeks for LR-9 and LR-74). All animals were housed individually and were given free access to food and water.
Blood (from the tail vein) and urine samples were collected from rats for glycemic control analysis and albuminuria measurements. Glycemia was monitored every 8 weeks by measuring plasma glucose and glycated hemoglobin. Plasma or serum also was tested for total cholesterol and total triglycerides. Progression of renal dysfunction was assessed by measuring urinary albumin to creatinine ratio (UA/Cr) and serum or plasma creatinine. For measurement of urinary albumin and creatinine concentrations, rats were housed in metabolic cages for 24 hours and urine was collected in a collection beaker with several drops of toluene to inhibit microbial growth.
Urinary albumin, plasma creatinine concentration, and urinary albumin/creatine ratio (UA/Cr) were used as indicators of renal function.

Assay [3] can be described thus: Carbonyl trapping activity. To be noted: compared with AG, PM and LR-90.
Assay [4] concerns STZ-Diabetic Rats. Briefly: Tail tendon collagen crosslinking, fluorescence (pepsin digestion) and acid solubility. Format: in vivo, rat. As to conditions: diabetic rats compared with untreated diabetic animals. The protocol: Isolation and preparation of tail tendon collagen was performed according to Kochakian et al., Diabetes 45:1694-1700, 1996. The relative degree of crosslinking and AGE formation in collagen was assessed by pepsin digestion and acid solubility. Pepsin digestion was performed as described previously by Stefek et al., Biochim. Biophys. Acta 1502:398-404, 2000. Briefly, collagen samples of 10 mg from individual rats were digested with pepsin (50 μg/mL in 0.5 mol/l acetic acid) for 24 hours at 37° C. After digestion, the samples were centrifuged at 3000 rpm for 30 minutes at 4° C. and the clear supernatant containing the digested collagen was collected. One hundred microliter aliquots of the supernatant were mixed with 900 μL PBS buffer for measurement of the fluorescence of the sample at 365 nm excitation and 418 nm emission. The hydroxyproline content of the supernatant was calculated following acid hydrolysis using a microassay method according to known methods (Creemers et al., Biotechniques 22:656-658, 1997).
The acid solubility of tail tendon collagen was measured by a modification of the method outlined in Yang et al., Arch. Biochem. Biophys. 412:42-46, 2003. Briefly, samples of about 2 mg collagen were weighed and solubilized in 0.05 M acetic acid overnight at 4° C. The suspensions were centrifuged at 20,000 g 60 minutes at 4° C. and the supernatants and pellets were separated for analysis of hydroxyproline content following acid hydrolysis. Acid solubility was calculated as the percentage of hydroxyproline in the supernatant divided by the total hydroxyproline content in the pellet and the supernatant.

[5] abbreviates: STZ-diabetic (D) rats, 30 weeks.
Setting [6] is: non-diabetic (ND) rats, 30 weeks.
Where [7] appears, read: STZ-diabetic (D) rats, LR-90, 32 weeks.
Where [8] appears, read: non-diabetic (ND) rats, LR-90, 32 weeks.

Marks after values point to notes of the source that are not given here.

As to `CC(C)(Oc1ccc(NC(=O)c2ccc3ccccc3c2)cc1)C(=O)O` [LR-9, 4-(2-napthylcarboxamido) phenoxyisobutyric acid], in the assay on STZ-Diabetic Rats [1] (diabetic (D) rats), the “Kidney/Body wt. Ratio” value amounted to 1.58 ± 0.11 g/100 g, the “Plasma Creatinine” value stood at 1.79 ± 0.39 mg/dL and the “Urinary Albumin” value amounted to 18.0 ± 3.7 mg/42 hr. Further, the “decrease of elevated plasma creatinine concentrations” value (shortened to “decrease”) in the assay on STZ-Diabetic Rats [1] is approximately 50%. Besides, in the assay with STZ-Diabetic Rats [1] (non-diabetic (ND) rats), the “Kidney/Body wt. Ratio” value was determined as 0.51 ± 0.01 g/100 g, the “Plasma Creatinine” value turned out to be 0.42 ± 0.02 mg/dL and the “Urinary Albumin” value came out at 4.8 ± 1.2 mg/42 hr. In the assay with STZ-Diabetic Rats [2] (setting [5]), the “Plasma Creatine” value is reported as 1.79 ± 0.95^c mg/dl, the “Urinary Albumin” value is 18.0 ± 9.1^c mg/24 hr and the “Urinary Albumin/Creatine Ratio” value is listed as 1.36 ± 0.93^c. Moreover, the “decrease” value with STZ-Diabetic Rats [2] is approximately 50%. For the same compound, in the assay on STZ-Diabetic Rats [2] (setting [6]), the “Plasma Creatine” value is 0.42 ± 0.02 mg/dL, the “Urinary Albumin” value was found to be 4.8 ± 2.3 mg/24 hr and the “Urinary Albumin/Creatine Ratio” value turned out to be 0.33 ± 0.13. Further, in assay [3], the carbonyl trapping activities result is listed as “weaker”. The “fluorescence and crosslinking of tail tendon collagen (pepsin digestion)” value (“fluorescence and crosslinking” below) in the assay with STZ-Diabetic Rats [4] is “significant reduction”.

In the case of `CC(Oc1cccc2cccnc12)C(=O)O` (stereo not shown) [LR-74, 2-(8-quinolinoxy) propionic acid], in the assay with STZ-Diabetic Rats [1] (diabetic (D) rats), the “Kidney/Body wt. Ratio” value came to 1.52 ± 0.10 g/100 g, the “Plasma Creatinine” value amounted to 1.64 ± 0.44 mg/dL and the “Urinary Albumin” value came to 14.3 ± 3.7 mg/42 hr. Moreover, the “decrease” value in the assay with STZ-Diabetic Rats [1] is on record as approximately 50%. In the assay with STZ-Diabetic Rats [1] (non-diabetic (ND) rats), the “Kidney/Body wt. Ratio” value is listed as 0.52 ± 0.01 g/100 g, the “Plasma Creatinine” value amounted to 0.42 ± 0.03 mg/dL and the “Urinary Albumin” value is listed as 4.6 ± 1.2 mg/42 hr. In the assay with STZ-Diabetic Rats [2] (setting [5]), the “Plasma Creatine” value was 1.64 ± 1.07^c mg/dl, the “Urinary Albumin” value is reported as 14.3 ± 9.07^c mg/24 hr and the “Urinary Albumin/Creatine Ratio” value was 1.23 ± 0.60^c. In addition, in the assay with STZ-Diabetic Rats [2], the “decrease” value is on record as approximately 50%. Also, in the assay with STZ-Diabetic Rats [2] (setting [6]), the “Plasma Creatine” value amounted to 0.42 ± 0.05 mg/dL, the “Urinary Albumin” value is 4.6 ± 2.4 mg/24 hr and the “Urinary Albumin/Creatine Ratio” value came out at 0.30 ± 0.16. Moreover, in assay [3], the carbonyl trapping activities result is listed as “weaker”. Further, the “fluorescence and crosslinking” value in the assay on STZ-Diabetic Rats [4] is on record as “significant reduction”.

Turning to “methylene bis(4,4′-(2-chlorophenylureidophenoxyisobutyric acid) [LR-90]”, in the assay with STZ-Diabetic Rats [2] (setting [7]), the “Plasma Creatine” value was 1.50 ± 0.53^c mg/dl, the “Urinary Albumin” value was 23.6 ± 4.5^c mg/24 hr and the “Urinary Albumin/Creatine Ratio” value is given as 1.57 ± 0.49^c. Further, the “decrease” value with STZ-Diabetic Rats [2] is approximately 50%. Besides, in the assay on STZ-Diabetic Rats [2] (setting [8]), the “Plasma Creatine” value is 0.58 ± 0.07 mg/dL, the “Urinary Albumin” value was determined as 8.9 ± 1.5 mg/24 hr and the “Urinary Albumin/Creatine Ratio” value was 0.57 ± 0.16. Moreover, in the assay on STZ-Diabetic Rats [4], the “fluorescence and crosslinking” value was “significant reduction”.

These data come from patent US7652037B2, “Methods of lowering lipid levels in a mammal” (City Of Hope, priority 2003, dated 2010).
